# US9505824B2, “Antigen peptide derived from the sequence of epidermal growth factor receptor having T790M point mutation” (Kanagawa Prefectural Hospital Organization, priority 2012, dated 2016)
# Legend:
# HLA-A2 molecule [1] = assay: HLA class I stabilization assay with TAP2-deficient RMA-S/A2 cells; assay type: binding; settings: peptide 10 μg/ml
# [2] = system: PBMCs from HLA-A2+ healthy donors; assay: Immunogenicity in PBMCs of HLA-A2+ healthy donors, IFN-γ ELISPOT against peptide-pulsed T2 cells; assay type: cell-based, human; settings: PBMCs from 6 HLA-A2+ healthy donors, repeated stimulation with peptide 10 μg/ml
# Source text: FIG. 1. Immunogenicity of T790M-5 and T790M-7 peptides in peripheral blood mononuclear cells (PBMCs) from normal donors. Immunogenicity of T790M-5 and T790M-7 peptides was examined with PBMCs from 6 different HLA-A2^+ healthy donors.
# HLA-A2 molecule [3] = target: T1, HLA-A2 molecule (Homo sapiens, UniProt P04439, D140Y/D185E/D98H/E176V/E277Q/G131W/G231S/I119V/I121R/I166T/I218V/L300P/L318F/N151K/N90K/P208A/P217A/Q86G/Q94H/R138H/R169H/T345S); assay: HLA class I stabilization assay with TAP2-deficient T2 cells; assay type: binding; settings: T2 cells expressing HLA-A2
# T1 construct: TAP2-deficient T2 cells expressing HLA-A2; host or cells: T2 cells (TAP2-deficient, HLA-A2+)
# Protocol: FIG. 6. HLA-A2-binding capability of EGFR-T790M-derived peptides. The binding of selected peptides to an HLA-A2 molecule was evaluated by HLA class I stabilization assay with TAP2-deficient T2 cells expressing HLA-A2.
# The binding of predicted peptides to an HLA-A2 molecule was evaluated by HLA class I stabilization assay with TAP2-deficient T2 cells (HLA-A2+) (RIKEN, Saitama, Japan). After overnight culture in RPMI 1640 medium at 26° C., T2 cells were cultured for 3 hours at 26° C. in the presence of each synthetic peptide. The cells were cultured for 2.5 hours at 37° C., and then stained with anti-HLA-A2 antibody (BB7.2) (MBL, Nagoya, Japan), followed by analysis with flow cytometry. The binding capability of each peptide to the HLA-A2 molecule was evaluated by comparing the mean fluorescence intensity (MFI) of HLA-A2 expression of the peptide with those of the positive and the negative controls. The HLA-A2-restricted HIV peptide and CMV peptide were used as positive controls, and H-2K^b-restricted OVA peptide was used as a negative control.
binding to HLA-A2 (in words) (HLA-A2 molecule [3]),Sequence,HLA binding capability (%) (MFI increase of HLA-A2 expression) (HLA-A2 molecule [1]),healthy donors in whom T cell lines secreting IFN-γ in response to the peptide were established [2]
,IMQLMPFGCL [Peptide T790M-4],0%,
,IMQLMPFGCLL [Peptide T790M-8],69.3%,none of the 6 healthy donors
higher binding,IMQLMPFGL [Peptide T790M-E],,
higher binding,IMQLMPFGV [Peptide T790M-D],,
confirmed to bind to HLA-A2,LIMQLMPFGC [Peptide T790M-3],0%,
,LTSTVQLIMQL [Peptide T790M-6],0%,
,QLIMQLMPFG [Peptide T790M-2],0%,
,VQLIMQLMPF [Peptide T790M-1],0%,
